Results published in PMC6662706, “Short amylin receptor antagonist peptides improve memory deficits in Alzheimer’s disease mouse model” (Scientific Reports, 2019).
No end group written: not given here.

Tests used:
[1] = test system: ERK1/2 signaling pathway downstream of AMY3 receptor; test: hAmylin-evoked phosphoERK1/2 in HEK-AMY3 cells; assay type: cell-based; settings: peptides 10 μM, hAmylin 1 μM, n = 3
From the text: (§1) Human amylin is a potent agonist at amylin receptor stimulating cAMP production in cells. In the first in vitro bioassay, we examined ability of R5 and R14 to block the hAmylin-evoked cAMP generation in HEK-AMY3 cells. R11 peptide served as a negative control. […] In a second in vitro assay, we examined whether peptides R5, and R14 could protect human fetal neurons (HFNs) and N2a (mouse neuroblastoma cell line) from Αβ1–42 induced cytotoxicity.
(§2) A shorter peptide library was derived from AC253 peptide sequence comprising 12–14 amino acid peptides. […] To determine the activity of these shorter peptides to block AMY3 receptor signaling, cellular cAMP levels (measured using a parameter cyclic AMP assay kit, R&D Systems) and phosphorylation ERK1/2 (Western blot) were measured. We assessed neuroprotective properties of the peptide fragments against Aβ cytotoxicity in vitro using the MTT assay in N2a cell line and human fetal neurons (HFNs), which were prepared from 12- to 15-gestational week fetuses with approval of the Human Ethics Research Board at the University of Alberta as previously reported[17],[19].
Intracellular signaling profiles were determined using in-cell Western blot techniques as previously described ^8. […]

[2] = molecular target: T1, AMY3 receptor (Homo sapiens, UniProt O60896+P30988); test: Block of hAmylin-evoked cAMP generation in HEK-AMY3 cells; assay type: cell-based; settings: peptide 30 min then hAmylin 1 pM–10 µM 30 min, peptides 10 µM (Fig. 1E legend), 1 µM (supplement method)
T1 construct: expressed in transfected cells
T1 sequence (P30988 25-474): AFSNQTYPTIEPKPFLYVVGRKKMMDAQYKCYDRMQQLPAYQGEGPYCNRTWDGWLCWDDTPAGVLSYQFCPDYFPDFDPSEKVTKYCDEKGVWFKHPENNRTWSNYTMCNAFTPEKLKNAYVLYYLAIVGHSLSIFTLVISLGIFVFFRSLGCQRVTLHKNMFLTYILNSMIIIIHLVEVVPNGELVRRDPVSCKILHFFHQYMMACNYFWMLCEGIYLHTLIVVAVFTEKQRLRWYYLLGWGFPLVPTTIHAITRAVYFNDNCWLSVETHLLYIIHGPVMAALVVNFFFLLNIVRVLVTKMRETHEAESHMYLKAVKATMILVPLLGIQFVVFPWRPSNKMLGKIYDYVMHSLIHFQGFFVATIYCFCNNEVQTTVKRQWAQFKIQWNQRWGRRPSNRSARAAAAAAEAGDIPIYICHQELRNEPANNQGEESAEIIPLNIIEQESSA
T1 sequence (O60896 24-148): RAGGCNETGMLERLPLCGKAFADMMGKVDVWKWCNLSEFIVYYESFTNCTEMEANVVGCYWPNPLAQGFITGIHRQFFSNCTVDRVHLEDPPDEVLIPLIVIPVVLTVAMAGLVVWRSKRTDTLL
From the text: as §1, §2
For cAMP measurements, HEK-AMY3 cells were plated on 24-well plates overnight. […] Cellular cAMP levels were measured using a parameter cyclic AMP assay kit (R&D Systems) according to the manufacturer’s instructions. […]

## LGRLSQELHRLQTYPRTNTGSNTY-NH2 (C-terminus assumed) [AC253, reference compound]
[1]
  effect on increases in phosphoERK1/2 evoked by hAmylin: reduce increases in phosphoERK1/2
[2]
  block of hAmylin-evoked cAMP increases: inhibited

## SQELHRLQTYPR-NH2 [R5]
[1]
  effect on increases in phosphoERK1/2 evoked by hAmylin: reduce increases in phosphoERK1/2
[2]
  block of hAmylin-evoked cAMP increases: blocked the cAMP increases in a dose-dependent manner
